Laboratory results from patent US20060034780A1, “Dental compositions and methods” (The Boots Company, priority 2002, published 2006).

Assay: Whitening of extracted teeth, CIE whiteness index by image analysis
Method: Extracted caries-free teeth collected from dental hospitals were briefly brushed to remove any skin tissue attached. The teeth were then sterilized by autoclaving at 121° C. for 25 mins. All teeth were stored in an airtight plastic container containing a solution of Phosphate Buffered Saline (PBS) with a few crystals of thymol as an antibacterial agent until required for use. Twenty four hours before the study, each tooth was glued onto a numbered glass microscope slide. A pellicle was formed on the teeth by soaking in sterilised artificial saliva with the composition set out in Table 1.
After the 24 hr period of pellicle formation, the teeth were then brushed with an Oral B Plaque remover electric toothbrush for 2 mins, with a standard fluoride toothpaste, the composition of which is set out in Table 2:
Excess toothpaste was removed by briefly rinsing each tooth with deionised water. The teeth were returned to a fresh aliquot of artificial saliva and then measured. The measured whiteness index (determined by image analysis as described below) was taken as the baseline against which subsequent measurements were compared.
[…] Teeth were returned to a fresh aliquot of artificial saliva and a Post-Bleach measurement taken.
FWA was applied to the teeth by immersion in a 500 ppm FWA solution (50 mg FWA in 100 ml deionised water stirred for 30 minutes) for 1 hr. The teeth were returned to a fresh aliquot of artificial saliva and a post-FWA measurement taken.
Each tooth was imaged using a Kodak DCS 410 camera, which was mounted 10 cm above and perpendicular to the specimen, using aperture F11 and a shutter speed of 1/10 second. The standardised lighting source comprised two UV tubes and two 6500K ‘daylight’ tubes. Each image was transferred to Adobe PhotoShop software. For each image, an 8 mm^2 area was analysed and an average Adobe L,a,b reading obtained using the software. All L,a,b values were converted to CIE L*,a*,b* and then to the CIE whiteness index W, using the equation: W=Y+800(xn−x)+1700(yn−y) where Y is the Y-tristimulus value of the specimen, x and y, and xn and yn are the chromaticity coordinates for the specimen and for the perfect diffuser for the CIE 1931 2° Standard Observer, respectively. Results

## OO [Example H2O2, hydrogen peroxide]
H2O2 alone: immersion in 15% hydrogen peroxide solution for 1 hr, vs baseline, six groups of three teeth
  average percentage increase in whiteness index: 17%
Treatment with 15% H2O2, each group of teeth, vs baseline
  change in whiteness index (in words): increase in whiteness index

## sodium chlorite
Bleach alone: sodium chlorite (generating chlorine dioxide in use) in place of H2O2, vs baseline
  average percentage increase in whiteness index: 8%

## O=S(=O)(O)c1ccccc1C=Cc1ccc(-c2ccc(C=Cc3ccccc3S(=O)(=O)O)cc2)cc1 [FWA, 4,4′-bis(2-sulfostyryl)biphenyl]
FWA treatment after 15% H2O2 bleaching
  change in whiteness index (in words) compared with treatment with H2O2 alone: further increase in whiteness
Combined treatment using chlorine dioxide (sodium chlorite bleach) and FWA (Tinopal CBS-X), vs baseline
  average percentage increase in whiteness index: 41%
Combined treatment: 15% H2O2 1 hr, then 500 ppm FWA solution 1 hr, vs baseline, six groups of three teeth
  average percentage increase in whiteness index: 24%
